Measurements: patent publication US20230023770A1, “Preparation of Drug for Treating Alzheimer's Disease (AD)” (Plantarx Limited, priority 2019, published 2023)
“Also recorded” adds a separate entry of the source.

Assays:
[1] = Body weight of Aβ oligomer-treated mice during treatment; type: in vivo, ICR mice; details: last day of experiment, gavage 13 d twice a day, acyclovir 500 mg/kg, DXMT 2 mg/kg, donepezil 2.5 mg/kg
Procedure: (§1) The acyclovir, DXMT and donepezil were dissolved in water.
(§2) Mice recover for 3 d without any experiments.
Briefly, on day 1, the Aβ oligomers are injected into both sides of the mouse hippocampus. The mice are let recover for 3 d. On days 4 to 16, mice are treated differently for 13 d. On day 17, a motor function of the mice is examined by the open field test. On days 18-24, the spatial cognition is tested by the Morris water maze test. On day 25, the mice are sacrificed for biochemical studies.
Digestive disturbance is one of the common adverse effects of acyclovir. Long-term treatment with acyclovir may cause indigestion and malnutrition, leading to weight loss. Therefore, the body weight of the mice is measured every 2 d to 3 d during the experiment.

Aβ oligomer-treated mice [2] = assay: Morris water maze test (spatial cognition); type: in vivo, ICR mice; details: acyclovir 500 mg/kg, DXMT 2 mg/kg, donepezil 2.5 mg/kg; for time in the target area compared with the Aβ group: probe trial, platform removed, 90 sec
Procedure: as §1, §2
The spatial memory is assessed with the Morris water maze test^10. The Morris water maze is a circular pool (110 cm in diameter) filled with water at a temperature of 23±2° C., and has a platform. Except on a last day, the platform is always placed in a center of a northwest quadrant. Swimming tracks are recorded by a video recorder connected to a computer. Each mouse is trained on positioning the platform over a four-day trial, and learning is assessed daily for four consecutive days. The time mice take to enter a hidden platform is measured. On the last day, the platform is removed and the mice are trained to swim for 90 sec for a probe trial. The swimming times are recorded in the four quadrants of the pool. A tendency to appear in the quadrant occupied before the platform indicates a spatial memory ability.

interleukin-6 (IL-6) = assay: ELISA of IL-6 in mouse hippocampus; type: in vivo, ICR mice; details: acyclovir 500 mg/kg, DXMT 2 mg/kg, donepezil 2.5 mg/kg
Procedure: as §1, §2
(§3) One day after the Morris water maze test, mice are deeply anesthetized and transcardially perfused with an ice-cold saline. The brain is quickly dissected. Hippocampal proteins are extracted and stored at −80° C. prior to use in a Western blotting assay (4 mice per group) and an enzyme-linked immunosorbent assay (ELISA, 3 mice per group). Intact brain tissues (3 mice per group) are stored in a formalin solution at […] prior to staining using immunohistochemistry (IHC).
Determination was conducted on concentrations of interleukin-6 (IL-6) and tumor necrosis factor-α (TNF-α) in mouse hippocampus using freshly prepared brain tissues. Brain samples are homogenized in a 0.1M phosphate buffered saline. A resulting brain extract is centrifuged to 2,000 g at 4° C. for 15 min. Concentrations of IL-6 and TNF-α are determined with an ELISA kit (Excell Bio, Shanghai, China) according to the manufacturer's protocol. An absorbance is read.

IL-17 = assay: Western blotting of IL-17 in mouse hippocampus; type: in vivo, ICR mice; details: acyclovir 500 mg/kg, DXMT 2 mg/kg, donepezil 2.5 mg/kg
Procedure: as §1, §2, §3
(§4) The Western blotting assay is conducted as previously described^11. Briefly, the brain tissues from hippocampus are extracted in a lysis buffer for 1 min and centrifuged at 16,000 g for 10 min. Protein levels in a supernatant are estimated by a Bradford analysis, the proteins are separated on an SDS-polyacrylamide gel, and electrotransferred to a polyvinylidene fluoride membrane. After 2 h of incubation with 5% skim milk in TBST, incubation is conducted for 12 h with corresponding antibodies Tau, IL-17 (Santa Cruz Biotechnology, Shanghai, China), pSer396-Tau, PSD-95, and β-actin (Cell Signaling Technology, Inc., Beverly, Mass., USA). […] The data is expressed as a ratio of an optical density (OD) compared to the control and a statistical analysis.

[3] = tested on: glial fibrillary acidic protein (GFAP); assay: IHC staining of GFAP (astrocyte activation) in hippocampus; type: in vivo, ICR mice; details: acyclovir 500 mg/kg, DXMT 2 mg/kg, donepezil 2.5 mg/kg
Procedure: as §1, §2, §3
(§5) IHC staining is conducted according to previously reported protocols^11. Briefly, after the Morris water maze test, the brains are dissected and incubated with 4% paraformaldehyde for 1 d. Brain specimens are dehydrated, paraffin-embedded, and sliced into 4-micron slices. Hippocampal sections are dewaxed and rehydrated. Treatment with 3% H2O2 is conducted for 10 min to inhibit a cellular peroxidase activity. Sections are incubated overnight at 4° C. with primary antibodies to a CD45 antigen and a glial fibrillary acidic protein (GFAP). […] The sections are labeled with DAB and analyzed colorimetrically. A mean OD of the area is analyzed using Image Pro 6.0 (Media Cybernetics Inc., MD, USA). […] Positive area and OD are determined by measurements on randomly selected microscope fields on each slide. […]

PSD-95 = assay: Western blotting of PSD-95 in mouse hippocampus; type: in vivo, ICR mice; details: acyclovir 500 mg/kg, DXMT 2 mg/kg, donepezil 2.5 mg/kg
Procedure: as §1, §2, §3, §4

CD45 = assay: IHC staining of CD45 (microglia activation) in hippocampus; type: in vivo, ICR mice; details: acyclovir 500 mg/kg, DXMT 2 mg/kg
Procedure: as §1, §2, §3, §5

pSer396-Tau = assay: Western blotting of pTau in mouse hippocampus; type: in vivo, ICR mice; details: acyclovir 500 mg/kg, DXMT 2 mg/kg
Procedure: as §1, §2, §3, §4

HSV-1-infected cells = details: cited from earlier work
Aβ oligomer-treated mice [4] = assay: Open field experiment (motor activity); details: day 17, 5 min, acyclovir 500 mg/kg, DXMT 2 mg/kg
Procedure: Zhejiang Academy of Medical Sciences has provided ICR mice weighing about 25 g. The mice are subjected to a 12-h illumination/darkness cycle at 22±2° C. (humidity: 50±10%) and are provided with water and standard food. The acyclovir, DXMT and donepezil were dissolved in water. The mice are randomly divided into 6 groups with 10 mice in each group, including: a control group, an Aβ oligomer group, an Aβ+500 mg/kg acyclovir group, an Aβ+2 mg/kg DXMT group, an Aβ+500 mg/kg acyclovir, 2 mg/kg DXMT group, and an Aβ+2.5 mg/kg donepezil group. The mice are anesthetized by intraperitoneal injection of sodium pentobarbital (50 mg/kg) and placed in a stereotaxic apparatus (RWD Life Science Co., Ltd., Shenzhen, China).
On day 1, the Aβ oligomer was injected into a bilateral ventricle region. A micro-dose is injected (1 μl/side) over 5 min. To reduce backflow, the cannula is left in place for 5 min. […] Mice recover for 3 d without any experiments. […]
To analyze a motor activity and exploratory behavior, the mice are housed in an open field (50 cm×50 cm×39 cm) with white plywood walls and brown floors. […] The number of crossed lines of four paws and the number of feedings are recorded using a hand-held counter and stopwatch, which are used to mark the motor activity and exploratory behavior. […]

COc1cc2c(cc1OC)C(=O)C(CC1CCN(Cc3ccccc3)CC1)C2 (centres unmarked) [donepezil]
body weight compared with the control group [1]: does not change the body weight
time to find the hidden platform (latency) compared with the Aβ group (Aβ oligomer-treated mice [2]; last day of training, gavage 13 d): significantly shorter
time in the target area compared with the Aβ group (Aβ oligomer-treated mice [2]): significantly longer
Aβ-induced increase in IL-6 expression compared with the Aβ group (interleukin-6 (IL-6)): does not alter the expression of IL-6
Aβ-induced increase in IL-17 expression compared with the Aβ group (IL-17): does not alter the expression of IL-17
Aβ-induced increase in the mean OD of GFAP compared with the Aβ group [3]: neither acyclovir nor donepezil treatment can change
expression of PSD-95 compared with the Aβ group (PSD-95): does not alter the expression of PSD-95

Nc1nc2c(ncn2COCCO)c(=O)[nH]1 [acyclovir]
time in the target area compared with the Aβ group (Aβ oligomer-treated mice [2]): do not show a better performance
Aβ-induced increase in IL-6 expression compared with the Aβ group (interleukin-6 (IL-6)): does not significantly reduce IL-6 production
Aβ-induced increase in IL-17 expression compared with the Aβ group (IL-17): cannot reduce the expression of IL-17
Aβ-induced increase in the mean OD of GFAP compared with the Aβ group [3]: significantly reduce; also recorded: neither acyclovir nor donepezil treatment can change
Aβ-induced increase in CD45 mean OD compared with the Aβ group (CD45): can inhibit the activation of microglia
expression of PSD-95 compared with the Aβ group (PSD-95): does not alter the expression of PSD-95
Aβ-induced increase in pTau expression compared with the Aβ group (pSer396-Tau): significantly attenuate
inhibition of aberrant tau phosphorylation (HSV-1-infected cells): ~100%
reduction of HSV-1-induced Aβ accumulation (HSV-1-infected cells): 70%
motor function (number of standing, number of crossing lines) (Aβ oligomer-treated mice [4]): do not significantly alter the motor function
